Assay results as given in US20230287044A1, “NOVEL ANTIBACTERIAL PEPTIDE AND USE THEREOF” (priority 2020, published 2023).
Values after ≈ are worked out from the molar mass of the structure shown. Read-outs that look alike come from different tables or passages of the source. Square brackets hold non-standard residues; d marks the D form. Peptide text beside a SMILES is read from it.

Columns and labels:
[1] = system: MRPA (P. aeruginosa) CCARM 2180; type: cell-based, Pseudomonas aeruginosa; settings: CCARM 2180, 18 h
Procedure, shortened: (§1)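 Mid-log cultures grown in CAMHB and diluted to 1× 10^6 cfu/ml in PBS were mixed with an equal volume of peptide in CAMHB (80 µM to 0.63 µM twofold dilutions). MIC taken as the mean of three independent experiments.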

[2] = system: VRE (E. faecalis) ATCC 51575; type: cell-based, Enterococcus faecalis; settings: ATCC 51575, 18 h
Procedure, shortened: as §1

[3] = system: MRAB (A. baumannii) ATCC BAA 1605; type: cell-based, Acinetobacter baumannii
Procedure, shortened: as §1

[4] = Solubility of antibacterial peptides in solution; type: physicochemical
[5] = system: MRSA (S. aureus) KCCM 40510; type: cell-based, Staphylococcus aureus; settings: KCCM 40510, 18 h
Procedure, shortened: as §1

[6] = system: 30 species of Acinetobacter baumannii (A. baumannii); type: cell-based; settings: against 30 species of Acinetobacter baumannii
Procedure: In addition, the results obtained by measuring the minimum inhibitory concentrations of KSH29, KSH42 and KSH43 against 30 species of Acinetobacter baumannii (A. baumannii) are shown in Table 4 below.
The minimum inhibitory concentrations (MIC) against the 30 species of Acinetobacter baumannii were measured in the following manner.
The strain 1605 was purchased from ATCC (American Type Culture Collection, USA). In addition, the strain 40203 was purchased from the Korean Culture Center of Microorganisms.
The COL^R refers to resistance to colistin, the TGC^R refers to resistance to tigecycline, and the TGC^I refers to tigecycline intermediate strains.

MIC MRPA (P. aeruginosa) CCARM 2180 [1] [µM] | MIC VRE (E. faecalis) ATCC 51575 [2] [µM] | MIC MRAB (A. baumannii) ATCC BAA 1605 ([3]; ATCC BAA 1605, 18 h) [µM] | MIC MRSA (S. aureus) KCCM 40510 [5] [µM] | SMILES | solubility at 12 h ([4]; aqueous buffer) [µM] | solubility at 12 h ([4]; plasma or biological fluid) [µM] | solubility at 12 h ([4]; water) [µM] | MIC50 [6] [µM] | MIC90 [6] [µM] | solubility at 12 h ([4]; aqueous buffer, PBS, peptide 25 to 200 µM, 12 hours at room temperature, read-out: Solubility in solution PBS) [µM] | solubility at 12 h ([4]; plasma or biological fluid, CAMHB, peptide 25 to 200 µM, 12 hours at room temperature, read-out: Solubility in solution CAMHB) [µM] | solubility at 12 h ([4]; water, H2O, observed for 12 hours at room temperature, read-out: Solubility in solution H2O) [µM] | MIC MRAB (A. baumannii) ATCC BAA 1605 ([3]; CAMHB, 37° C., 18 hours, average of three experiments) [µM]
>5 | 2.5 (≈ 3.71 µg/mL) | 5 (≈ 7.42 µg/mL) | 25 (≈ 37.1 µg/mL) | CC[C@@H](C)[C@@H](NC(=O)[C@@H](Cc1c[nH]c2ccccc12)NC(=O)[C@H](NC(=O)[C@@H](CC(C)C)NC(=O)[C@@H](Cc1c[nH]c2ccccc12)NC(=O)[C@H](N)CC(=O)O)C(C)C)C(=O)N[C@H](Cc1c[nH]c2ccccc12)C(=O)N[C@H](CCCNC(=N)N)C(=O)N[C@H](CCCNC(=N)N)C(=O)N[C@H](CCCNC(=N)N)C(N)=O [KSH36, dwlvwiwrrr] (H-[dD][dW][dL][dV][dW][dI][dW][dR][dR][dR]-NH2; N-terminus assumed) | > 200 | 100 (≈ 148 µg/mL) | > 2000 | – | – | – | – | – | –
1.25 (≈ 1.77 µg/mL) | 1.25 (≈ 1.77 µg/mL) | 0.63 (≈ 0.891 µg/mL) | 1.25 (≈ 1.77 µg/mL) | CC[C@@H](C)[C@@H](NC(=O)[C@@H](Cc1c[nH]c2ccccc12)NC(=O)[C@@H](CCCCN)NC(=O)[C@@H](CCCCN)NC(=O)[C@H](N)CCCCN)C(=O)N[C@H](Cc1c[nH]c2ccccc12)C(=O)N[C@@H](C(=O)N[C@H](CC(C)C)C(=O)N[C@H](Cc1c[nH]c2ccccc12)C(=O)N[C@H](CCCCN)C(N)=O)C(C)C [KSH46, kkkwiwvlwk] (H-[dK][dK][dK][dW][dI][dW][dV][dL][dW][dK]-NH2; N-terminus assumed) | > 200 | 200 (≈ 283 µg/mL) | > 2000 | – | – | – | – | – | –
– | – | – | – | CC(C)[C@@H](NC(=O)[C@H](N)Cc1c[nH]c2ccccc12)C(=O)N[C@@H](C(=O)N[C@H](Cc1c[nH]c2ccccc12)C(=O)N[C@@H](C(=O)N[C@@H](C(=O)N[C@H](Cc1c[nH]c2ccccc12)C(=O)N[C@H](CCCNC(=N)N)C(=O)N[C@H](CCCNC(=N)N)C(=O)N[C@H](CCCNC(=N)N)C(N)=O)C(C)C)C(C)C)C(C)C [KSH42, wvvwvvwrrr] (H-[dW][dV][dV][dW][dV][dV][dW][dR][dR][dR]-NH2; N-terminus assumed) | ≥ 100 | 100 (≈ 144 µg/mL) | > 2000 | 1.25 (≈ 1.8 µg/mL) | 1.25 (≈ 1.8 µg/mL) | – | – | – | –
– | – | – | – | CN[C@H](CC(C)C)C(=O)N[C@H]1C(=O)N[C@@H](CC(N)=O)C(=O)N[C@H]2C(=O)N[C@H]3C(=O)N[C@H](C(=O)N[C@H](C(=O)O)c4cc(O)cc(O)c4-c4cc3ccc4O)[C@H](O)c3ccc(c(Cl)c3)Oc3cc2cc(c3O[C@@H]2O[C@H](CO)[C@@H](O)[C@H](O)[C@H]2O[C@H]2C[C@](C)(N)[C@H](O)[C@H](C)O2)Oc2ccc(cc2Cl)[C@H]1O [Vancomycin, reference compound] | – | – | – | – | – | > 200 | > 200 | > 2000 | –

SMILES | MIC MRPA (P. aeruginosa) CCARM 2180 [1] [µM] | MIC VRE (E. faecalis) ATCC 51575 [2] [µM] | MIC MRAB (A. baumannii) ATCC BAA 1605 ([3]; ATCC BAA 1605, 18 h) [µM] | MIC MRSA (S. aureus) KCCM 40510 [5] [µM] | solubility at 12 h ([4]; aqueous buffer) [µM] | solubility at 12 h ([4]; plasma or biological fluid) [µM] | solubility at 12 h ([4]; water) [µM] | MIC50 [6] [µM] | MIC90 [6] [µM] | solubility at 12 h ([4]; aqueous buffer, PBS, peptide 25 to 200 µM, 12 hours at room temperature, read-out: Solubility in solution PBS) [µM] | solubility at 12 h ([4]; plasma or biological fluid, CAMHB, peptide 25 to 200 µM, 12 hours at room temperature, read-out: Solubility in solution CAMHB) [µM] | solubility at 12 h ([4]; water, H2O, observed for 12 hours at room temperature, read-out: Solubility in solution H2O) [µM] | MIC MRAB (A. baumannii) ATCC BAA 1605 ([3]; CAMHB, 37° C., 18 hours, average of three experiments) [µM]
CC[C@@H](C)[C@@H](NC(=O)[C@@H](Cc1c[nH]c2ccccc12)NC(=O)[C@H](NC(=O)[C@@H](CC(C)C)NC(=O)[C@H](N)Cc1c[nH]c2ccccc12)C(C)C)C(=O)N[C@H](Cc1c[nH]c2ccccc12)C(=O)N[C@H](CCC(N)=O)C(=O)N[C@H](CCCNC(=N)N)C(=O)N[C@H](CCCNC(=N)N)C(=O)N[C@H](CCCNC(=N)N)C(N)=O [KSH30, wlvwiwqrrr] (H-[dW][dL][dV][dW][dI][dW][dQ][dR][dR][dR]-NH2; N-terminus assumed) | >5 | – | – | – | ≥ 25 | 50 (≈ 74.9 µg/mL) | > 2000 | – | – | – | – | – | 1.25 (≈ 1.87 µg/mL)
